Reference: the supplement of paper PMC10307832

Tests used:
Experiment in all cases: relative viability (nuclei count vs DMSO), 5 days (fraction); higher = more cells survive
NCI-H322M = system: NCI-H322M
How it was run: (§1)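 Relative viability was taken as the ratio of nuclei in treated wells to nuclei in vehicle wells. Lung cancer cell lines in 1536-well plates received compounds by pin tool one day after seeding, either one drug alone or a fixed anchor-drug dose plus five library-drug doses (not always all listed) in √10 steps. Nuclei were counted on 4× images after 5 days of treatment, and values are medians of duplicate plates.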

NCI-H1651 = system: NCI-H1651
How it was run: as §1

LXF-289 = system: LXF-289
How it was run: as §1

PC-3 [JPC-3] = system: PC-3 [JPC-3]
How it was run: as §1

ChaGo-K-1 = system: ChaGo-K-1
How it was run: as §1

NCI-H661 = system: NCI-H661
How it was run: as §1

SK-MES-1 = system: SK-MES-1
How it was run: as §1

HCC-78 = system: HCC-78
How it was run: as §1

NCI-H596 = system: NCI-H596
How it was run: as §1

NCI-H2342 = system: NCI-H2342
How it was run: as §1

UMC-11 = system: UMC-11
How it was run: as §1

HCC-15 = system: HCC-15
How it was run: as §1

LU99A = system: LU99A
How it was run: as §1

LC-2-ad = system: LC-2-ad
How it was run: as §1

NCI-H838 = system: NCI-H838
How it was run: as §1

BEN = system: BEN
How it was run: as §1

NCI-H650 = system: NCI-H650
How it was run: as §1

NCI-H2087 = system: NCI-H2087
How it was run: as §1

NCI-H358 = system: NCI-H358
How it was run: as §1

NCI-H1944 = system: NCI-H1944
How it was run: as §1

LK-2 = system: LK-2
How it was run: as §1

NCI-H1666 = system: NCI-H1666
How it was run: as §1

LCLC-97TM1 = system: LCLC-97TM1
How it was run: as §1

NC(=O)Nc1cc(-c2cccc(F)c2)sc1C(=O)N[C@H]1CCCNC1 [AZD7762] + Nc1nc2[nH]cc(CCc3ccc(C(=O)N[C@@H](CCC(=O)O)C(=O)O)cc3)c2c(=O)[nH]1 [Pemetrexed] (partner 0.2 µM)
relative viability (NCI-H322M; first compound 0.01 µM): 0.595 | relative viability (NCI-H322M; first compound 0.03162 µM): 0.617 | relative viability (NCI-H322M; first compound 0.1 µM): 0.571 | relative viability (NCI-H322M; first compound 0.3162 µM): 0.542 | relative viability (NCI-H322M; first compound 1 µM): 0.379 | relative viability (NCI-H1651; first compound 0.01 µM): 0.624 | relative viability (NCI-H1651; first compound 0.03162 µM): 0.688 | relative viability (NCI-H1651; first compound 0.1 µM): 0.558 | relative viability (NCI-H1651; first compound 0.3162 µM): 0.385 | relative viability (NCI-H1651; first compound 1 µM): 0.259 | relative viability (LXF-289; first compound 0.01 µM): 0.817 | relative viability (LXF-289; first compound 0.03162 µM): 0.864 | relative viability (LXF-289; first compound 0.1 µM): 0.949 | relative viability (LXF-289; first compound 0.3162 µM): 0.803 | relative viability (LXF-289; first compound 1 µM): 0.626 | relative viability (PC-3 [JPC-3]; first compound 0.01 µM): 0.626 | relative viability (PC-3 [JPC-3]; first compound 0.03162 µM): 1.08 | relative viability (PC-3 [JPC-3]; first compound 0.1 µM): 1.12 | relative viability (PC-3 [JPC-3]; first compound 0.3162 µM): 0.859 | relative viability (PC-3 [JPC-3]; first compound 1 µM): 0.688 | relative viability (ChaGo-K-1; first compound 0.01 µM): 0.26 | relative viability (ChaGo-K-1; first compound 0.03162 µM): 0.267 | relative viability (ChaGo-K-1; first compound 0.1 µM): 0.259 | relative viability (ChaGo-K-1; first compound 0.3162 µM): 0.243 | relative viability (ChaGo-K-1; first compound 1 µM): 0.256 | relative viability (NCI-H661; first compound 0.01 µM): 0.935 | relative viability (NCI-H661; first compound 0.03162 µM): 0.739 | relative viability (NCI-H661; first compound 0.1 µM): 0.597 | relative viability (NCI-H661; first compound 0.3162 µM): 0.49 | relative viability (NCI-H661; first compound 1 µM): 0.426 | relative viability (SK-MES-1; first compound 0.01 µM): 1.01 | relative viability (SK-MES-1; first compound 0.03162 µM): 0.914 | relative viability (SK-MES-1; first compound 0.1 µM): 0.86 | relative viability (SK-MES-1; first compound 0.3162 µM): 0.433 | relative viability (SK-MES-1; first compound 1 µM): 0.237 | relative viability (HCC-78; first compound 0.01 µM): 0.927 | relative viability (HCC-78; first compound 0.03162 µM): 0.903 | relative viability (HCC-78; first compound 0.1 µM): 0.895 | relative viability (HCC-78; first compound 0.3162 µM): 0.895 | relative viability (HCC-78; first compound 1 µM): 0.889 | relative viability (NCI-H596; first compound 0.01 µM): 0.484 | relative viability (NCI-H596; first compound 0.03162 µM): 0.573 | relative viability (NCI-H596; first compound 0.1 µM): 0.54 | relative viability (NCI-H596; first compound 0.3162 µM): 0.425 | relative viability (NCI-H596; first compound 1 µM): 0.393 | relative viability (NCI-H2342; first compound 0.01 µM): 0.784 | relative viability (NCI-H2342; first compound 0.03162 µM): 0.797 | relative viability (NCI-H2342; first compound 0.1 µM): 0.78 | relative viability (NCI-H2342; first compound 0.3162 µM): 0.755 | relative viability (NCI-H2342; first compound 1 µM): 0.669 | relative viability (UMC-11; first compound 0.01 µM): 0.833 | relative viability (UMC-11; first compound 0.03162 µM): 0.797 | relative viability (UMC-11; first compound 0.1 µM): 0.782 | relative viability (UMC-11; first compound 0.3162 µM): 0.495 | relative viability (UMC-11; first compound 1 µM): 0.369 | relative viability (HCC-15; first compound 0.01 µM): 0.213 | relative viability (HCC-15; first compound 0.03162 µM): 0.234 | relative viability (HCC-15; first compound 0.1 µM): 0.232 | relative viability (HCC-15; first compound 0.3162 µM): 0.209 | relative viability (HCC-15; first compound 1 µM): 0.187 | relative viability (LU99A; first compound 0.01 µM): 0.204 | relative viability (LU99A; first compound 0.03162 µM): 0.165 | relative viability (LU99A; first compound 0.1 µM): 0.142 | relative viability (LU99A; first compound 0.3162 µM): 0.151 | relative viability (LU99A; first compound 1 µM): 0.109 | relative viability (LC-2-ad; first compound 0.01 µM): 0.3 | relative viability (LC-2-ad; first compound 0.03162 µM): 0.277 | relative viability (LC-2-ad; first compound 0.1 µM): 0.277 | relative viability (LC-2-ad; first compound 0.3162 µM): 0.229 | relative viability (LC-2-ad; first compound 1 µM): 0.241 | relative viability (NCI-H838; first compound 0.01 µM): 0.25 | relative viability (NCI-H838; first compound 0.03162 µM): 0.192 | relative viability (NCI-H838; first compound 0.1 µM): 0.177 | relative viability (NCI-H838; first compound 0.3162 µM): 0.177 | relative viability (NCI-H838; first compound 1 µM): 0.167 | relative viability (BEN; first compound 0.01 µM): 0.804 | relative viability (BEN; first compound 0.03162 µM): 0.902 | relative viability (BEN; first compound 0.1 µM): 0.757 | relative viability (BEN; first compound 0.3162 µM): 0.809 | relative viability (BEN; first compound 1 µM): 0.606 | relative viability (NCI-H650; first compound 0.01 µM): 1.01 | relative viability (NCI-H650; first compound 0.03162 µM): 0.891 | relative viability (NCI-H650; first compound 0.1 µM): 0.968 | relative viability (NCI-H650; first compound 0.3162 µM): 0.821 | relative viability (NCI-H650; first compound 1 µM): 0.644 | relative viability (NCI-H2087; first compound 0.01 µM): 0.718 | relative viability (NCI-H2087; first compound 0.03162 µM): 0.654 | relative viability (NCI-H2087; first compound 0.1 µM): 0.714 | relative viability (NCI-H2087; first compound 0.3162 µM): 0.66 | relative viability (NCI-H2087; first compound 1 µM): 0.692 | relative viability (NCI-H358; first compound 0.01 µM): 0.23 | relative viability (NCI-H358; first compound 0.03162 µM): 0.188 | relative viability (NCI-H358; first compound 0.1 µM): 0.19 | relative viability (NCI-H358; first compound 0.3162 µM): 0.149 | relative viability (NCI-H358; first compound 1 µM): 0.128 | relative viability (NCI-H1944; first compound 0.01 µM): 0.694 | relative viability (NCI-H1944; first compound 0.03162 µM): 0.601 | relative viability (NCI-H1944; first compound 0.1 µM): 0.54 | relative viability (NCI-H1944; first compound 0.3162 µM): 0.28 | relative viability (NCI-H1944; first compound 1 µM): 0.188 | relative viability (LK-2; first compound 0.01 µM): 0.316 | relative viability (LK-2; first compound 0.03162 µM): 0.358 | relative viability (LK-2; first compound 0.1 µM): 0.274 | relative viability (LK-2; first compound 0.3162 µM): 0.214 | relative viability (LK-2; first compound 1 µM): 0.169 | relative viability (NCI-H1666; first compound 0.01 µM): 0.851 | relative viability (NCI-H1666; first compound 0.03162 µM): 0.838 | relative viability (NCI-H1666; first compound 0.1 µM): 0.739 | relative viability (NCI-H1666; first compound 0.3162 µM): 0.594 | relative viability (NCI-H1666; first compound 1 µM): 0.719 | relative viability (LCLC-97TM1; first compound 0.01 µM): 0.187 | relative viability (LCLC-97TM1; first compound 0.03162 µM): 0.165 | relative viability (LCLC-97TM1; first compound 0.1 µM): 0.17 | relative viability (LCLC-97TM1; first compound 0.3162 µM): 0.139 | relative viability (LCLC-97TM1; first compound 1 µM): 0.146
